Experimental findings from patent US10815237B2, “Antimicrobials and methods of making and using same” (BIOVERSYS AG, priority 2016, dated 2020) are described below.

In brackets after ≈: the same amount, converted by molar mass. Read-outs that look alike come from different tables or passages of the source.

One assay deals with E. coli DH10B recipient. Put plainly: CLSI broth microdilution MIC, E. coli DH10B recipient. Format: cell-based. Here is the method: (§1) Four compounds, including Compound No. 8 of the present application (RX-04D) were tested against (i) multiresistant Enterobacteriaceae and Acinetobacter with carbapenemases; (ii) Enterobacteriaceae with MCR-1; and (iii) P. aeruginosa with altered efflux (see Tables 4 and 5). In this case, MCR-1 is relevant because its activity reduces the negative charge of lipopolysaccharides, potentially affecting binding of poly-basic molecules such as the compounds tested herein, as well as polymyxins.
(§2) MICs of the four tested compounds and comparators (amikacin, cefepime, colistin, meropenem and tigecyline) were determined by CLSI broth microdilution using pre-prepared plates (Trek Diagnostic Systems) (CLSI Approved Standard M7-A10). Carbapenemase and mcr-1 genes were detected by PCR or sequencing. Efflux levels in P. aeruginosa isolates were inferred by interpretive reading of antibiogram data.

Assay [1] has as its system E. coli DH10B mcr-1 transformant. Put plainly: CLSI broth microdilution MIC, E. coli DH10B mcr-1 transformant. Format: cell-based. Here is the method:
as §1, §2

Assay [2] has as its system Enterobacteriaceae (n=68). Briefly: CLSI broth microdilution MIC, Enterobacteriaceae panel. Format: cell-based. The settings on record: for peak of unimodal MIC distribution: 68 Enterobacteriaceae. Here is the method: as §1, §2
In general terms: Broth dilution looks for growth in wells or tubes with falling amounts of substance.

The subject of another assay is P. aeruginosa (n=20). Put plainly: CLSI broth microdilution MIC, P. aeruginosa. Format: cell-based. The conditions noted are these: for share of MICs ≥16 mg/L: P. aeruginosa isolates, stated jointly for analogues C and D; for MIC: Pseudomonas aeruginosa. Here is the method:
as §1, §2

Assay [3] relates to Staphylococcus aureus (S. aureus) 11540 strain. Put plainly: standard microdilution MIC, S. aureus. The settings on record: Staphylococcus aureus. Format: cell-based. Here is the method: (§3) The in vitro activity of the compounds of the present disclosure can be determined. Antimicrobial testing is typically performed to determine the minimum inhibitory concentration (MIC). Minimum inhibitory concentrations (MICs) are determined by the microdilution method in a final volume of 100 μl according to protocols outlined by The Clinical and Laboratory Standards Institute (CLSI). Performance standards for reference strains are assessed within the same experimental design to maintain quality control. See, for example, Clinical Laboratory Standards Institute: Methods for dilution antimicrobial susceptibility tests for bacteria that grow aerobically M7-A8. Approved Standard-Eighth Edition. Wayne, Pa.: CLSI; December 2008; and Clinical Laboratory Standards Institute: Performance Standards for Antimicrobial Susceptibility Testing M100-S20; Approved Standard-Twentieth Edition. Wayne, Pa.: CLSI; June 2010.
(§4) The compounds of the present disclosure were tested for antimicrobial activity. The Compounds 1-23 were run against Eschericia coli (E. coli) strain ATCC25922 and against Staphylococcus aureus (S. aureus) 11540 strain using a standard microdilution assay to determine minimum inhibitory concentrations (MICs). […] It will be recognized by one skilled in the art that the compounds can be assessed against other bacterial organisms and that the presentation of data for activity against Eschericia coli and Staphylococcus aureus are illustrative and in no way is intended to limit the scope of the present disclosure. The compounds of the present disclosure can be assayed against a range of other microorganisms depending upon the performance activity desired to be gathered. Furthermore, the “+” and “−” representation and the selection of a cutoff value of 16 micrograms/mL is also illustrative and in no way is intended to limit the scope of the present disclosure.

For assay [4], the system named is Eschericia coli (E. coli) strain ATCC25922. Briefly: standard microdilution MIC, E. coli. The conditions noted are these: Escherichia coli. Format: cell-based, Escherichia coli. Here is the method:
as §3, §4

Assay [5] deals with Chinese hamster ovary (CHO) cells. Put plainly: cytotoxicity against CHO cell line (Cell Titer Blue). Format: cell-based. The conditions noted are these: Cricetulus griseus, 24 h, CHO-K1 cells, 24 hours incubation, percent cell kill. Here is the method:
The compounds of the present disclosure were tested for cytotoxicity against Chinese hamster ovary (CHO) cells.
The assay was performed by seeding CHO—K1 in F12K medium containing 13.33% Fetal Bovine Serum […]. 37.5 μl of cell suspension at a concentration of 9,500 cells/well was plated into each column of a 384-well black clear bottom assay plate with the exception of a negative (no cell) control column, and allowed to adhere for 2 hours. The culture media was then removed from the 175 cm^2 flask(s) and the cell monolayer washed with 10 mL of Phosphate Buffered Saline PBS. 3 mL of Cellstripper™ was then added and the flask was incubated for approximately 5 min at 37° C. The cells were dissociated by agitation and 7 mL of F 12K medium containing 10% FBS was added to the flask. A homogeneous cell suspension was obtained by trituration of the flask. The cells were counted with a hemocytometer by diluting an aliquot of the cell suspension in PBS with 0.4% trypan blue. Typically, a ratio of 100 μl cell suspension to 1800 μl PBS to 100 μl trypan blue was used.
The volume of cell suspension containing the number of cells needed to seed the plate(s) (15.2 mL containing 3.8×10^6 cells) was calculated and transferred to a 50 mL centrifuge tube with the appropriate volume of media. 37.5 μl of cells were added to each well of the 384 well plate except for the negative (no cell) control column. A cytotoxicity 100-fold dilution plate was then prepared by manually pipetting 18 μl of 100% DMSO into two columns of an empty low volume dilution plate. 2 μl of a 50 mM solution of compounds 1-23 from the translation plate were manually pipetted into the corresponding columns of the 100-fold dilution plate. 10 μl of 100% DMSO was manually pipetted into all remaining columns of the 100-fold plate.
A 4-fold cytotoxicity plate was prepared beforehand by manually pipetting 48 μl of F12K media (without DMSO and without FBS) into each well of a matrix 384 well plate. The test samples in the 100-fold dilution plate were mixed and diluted. Ten 2-fold dilutions were performed for each compound in duplicate. The 384 cannula array then transferred 2 μl to the 48 μl of media in the cytotoxicity 4-fold dilution plate. The array was then mixed and 12.5 μl of samples from the cytotoxicity 4-fold dilution plate were transferred to the 37.5 μl of cells and media. The final top concentration of samples at this point in the procedure was 50 μM with 10 subsequent 1:2 dilutions down to […]. The final DMSO concentration were 1% and the final concentration of FBS was 10%.
Cycloheximide was run as a control. Specifically, Cycloheximide was diluted to 0.1 mM from 100 mM stock […] and was added to the cytotoxicity 100-fold plate. Upon addition to the cell plate, a range of 1 μM to 1 nM of cycloheximide was run.
A column separate from the one (referred to above) that served as the negative control was used for cell control wells to which only media was added.
The plates were then incubated for 24 hours at 37° C. and 5% CO2. […] The two columns used earlier to prepare the 100-fold dilution plate by pipetting 18 μl of 100% DMSO contained the samples tested at 200 μM. After the 24 hour incubation period, the 4 μl of Cell Titer blue was added to each well using a Multichannel Matrix pipettor. The plates were returned to the incubator and incubated for an additional 5 hours. Fluorescence (530 nm excitation wavelength/590 nm emission wavelength) was measured on a Wallac Victor microplate reader.
Cell viability was assessed fluorometrically after a 5 hour incubation with resazurin (Cell Titer Blue™), which is reduced by living cells to the fluorescent resorufin.
The average fluorescence for the negative control was determined to obtain the average blank fluorescence. The average blank fluorescence was subtracted from the fluorescence values obtained for all the test agents. The resulting values are the corrected fluorescence. […]

Assay [6] has as its system A. baumannii isolates (n=10). Put plainly: CLSI broth microdilution MIC, A. baumannii. Format: cell-based. The settings on record: for relative activity among analogues: 10 A. baumannii; for MIC: Acinetobacter baumannii, A. baumannii. Here is the method:
as §1, §2

The next assay deals with CPE (n=36). Briefly: CLSI broth microdilution MIC, carbapenemase producers (CPE). The conditions noted are these: 35/36 (97%) for RX-04A. Format: cell-based, Enterobacteriaceae. Here is the method: as §1, §2
The test system of assay [7] is Enterobacteriaceae with MCR-1 (MCR-1 isolates, n=14). Briefly: CLSI broth microdilution MIC, MCR-1 isolates. Format: cell-based. The settings on record: all MCR-1 isolates (n=14). Here is the method:
as §1, §2

[8] abbreviates: Escherichia coli, DH10BRECIPIENT, read-out: MIC.

Broadly, the IC50 is the concentration at which inhibition is half-maximal.

As for colistin [reference compound], the “MIC” value came to 0.25 µg/mL in the assay on E. coli DH10B recipient and 4 µg/mL in [1] (E. coli DH10B MCR-1 Transformant).

Turning to `CSc1cc(-n2cc3cc(-c4cc(CCC[C@@H](N)C5CC5)cc(Cl)c4F)[nH]c3nc2=O)ccc1[C@@H]1CCC[C@@H](CCNC(C)=N)N1` [RX-04C], the MIC (in the assay with E. coli DH10B recipient (setting [8]); in assay [1] (Escherichia coli)) was 0.5 µg/mL (≈ 0.753 µM) each time. For the same compound, the “peak of unimodal MIC distribution” value in assay [2] came to 2 µg/mL. Moreover, the “share of MICs ≥16 mg/L” value with P. aeruginosa (n=20) is given as 48%.

For the compound `C[C@H](N)CCCc1cc(Cl)c(F)c(-c2cc3cn(-c4ccc([C@@H]5CCC[C@@H](CCNC(=N)CN)N5)cc4)c(=O)nc3[nH]2)c1` [Compound 8], the MIC is no more than 16 µg/mL in assay [3], no more than 16 µg/mL in [4], 1 µg/mL (≈ 1.65 µM) with E. coli DH10B recipient (setting [8]) and 1 µg/mL (≈ 1.65 µM) in assay [1] (Escherichia coli). This compound also gave an IC50 in assay [5] of 95.2 µM. Besides, the “peak of unimodal MIC distribution” value in assay [2] was 2 µg/mL. In addition, in assay [6], the “relative activity among analogues” value was “least active analogue”. Further, the “share of MICs ≥16 mg/L” value with P. aeruginosa (n=20) was determined as 48%.

In the case of `C[C@H](N)CCCc1cc(OC(F)(F)F)c(F)c(-c2cc3cn(-c4ccc([C@@H]5CCC[C@@H](CCNC(=N)N)N5)cc4)c(=O)nc3[nH]2)c1` [RX-04A], the MIC in the assay with E. coli DH10B recipient (setting [8]) is 0.25 µg/mL (≈ 0.389 µM); in assay [1] (Escherichia coli), 0.25 µg/mL (≈ 0.389 µM); in [2] (67/68 (>98%) of Enterobacteriaceae, read-out: MICs) it was 0.25 to 2 µg/mL (≈ 0.389 to 3.11 µM); in [2] (Enterobacteriaceae, summary, read-out: MICs mostly) it was 1 to 2 µg/mL (≈ 1.56 to 3.11 µM); in [6] (7/10 values, read-out: MICs), 1 to 2 µg/mL (≈ 1.56 to 3.11 µM); in assay [6] (summary, read-out: MICs mostly), 1 to 2 µg/mL (≈ 1.56 to 3.11 µM). Further, the MIC in the assay on P. aeruginosa (n=20) (19/20 (95%) P. aeruginosa isolates, read-out: MICs) lay within 1 to 4 µg/mL (≈ 1.56 to 6.22 µM); in the assay with P. aeruginosa (n=20) (P. aeruginosa, summary, read-out: MICs mostly) it was 1 to 4 µg/mL (≈ 1.56 to 6.22 µM). For the same compound, the “peak of unimodal MIC distribution” value in assay [2] worked out at 1 µg/mL. Moreover, the “MIC relative to MIC for E. coli ATCC 25922” value is reported as no more than 4 fold in the assay with CPE (n=36) and no more than 2 fold in assay [7]. Further, the “relative activity among analogues” value in [6] is reported as “lowest MICs”. In the assay with P. aeruginosa (n=20) (P. aeruginosa isolates with elevated efflux), the “change of MIC with elevated efflux” value is reported as “not raised”.

Regarding `CC(=N)NCC[C@@H]1CCC[C@@H](c2ccc(-n3cc4cc(-c5cc(CCC[C@@H](N)CO)cc(Cl)c5F)[nH]c4nc3=O)cc2F)N1` [RX-04B], the MIC (with E. coli DH10B recipient (setting [8]); in assay [1] (Escherichia coli)) was 0.5 µg/mL (≈ 0.799 µM) in each case. Besides, the “peak of unimodal MIC distribution” value in [2] came to 1 µg/mL.

For the compound `C=C[C@H](N)CCCc1cc(Cl)c(F)c(-c2cc3cn(-c4cc(F)c([C@@H]5CCC[C@@H](CCNC(=N)CN)N5CCCF)c(SC)c4)c(=O)nc3[nH]2)c1` [Compound 65], the MIC in [3] and in [4] was no more than 16 µg/mL in each case. The same compound came in with a half-inhibitory concentration (IC50) in assay [5] of 5.2 µM.

With `CSc1cc(-n2cc3cc(-c4cc(CCC[C@H](C)N)cc(C(F)(F)F)c4)[nH]c3nc2=O)ccc1[C@@H]1CCC[C@@H](CCNC(=N)CN)N1CCCF` [Compound 22], the MIC in assay [3] and in [4] was no more than 16 µg/mL each time. In addition, the 50% inhibitory concentration (IC50) in [5] is greater than 100 µM.

`C=C[C@H](N)CCCc1cc(-c2cc3cn(-c4ccc([C@@H]5CCC[C@@H](CCNC(=N)CN)N5CCCF)c(SC)c4)c(=O)nc3[nH]2)cc(C(F)(F)F)c1` [Compound 55]: the MIC in assay [3] and in assay [4] was no more than 16 µg/mL each time. Also, the 50% inhibitory concentration (IC50) in [5] was greater than 100 µM.
